Measured values reported in patent EP1157985A1 (G.D. SEARLE & CO., priority 1996, dated 1997).
Counter-ions that a name gives are not always drawn. Like-named read-outs stand apart in the source and are kept apart here.

What was measured:
[1] = target: T1, Human fibrinogen receptor (αIIbβ3) (Homo sapiens, UniProt P05106+P08514); test: Purified IIb/IIIa receptor assay (solid phase receptor assay, competition with biotinylated vitronectin); assay type: binding; conditions: purified receptor from outdated platelets; 1 nM biotinylated vitronectin; highest concentration tested 1.0 x 10^-4 M
T1 construct: Human fibrinogen receptor (αIIbβ3) was purified from outdated platelets; from tissue; host or cells: outdated (human) platelets
Source text: PURIFIED IIb/IIIa RECEPTOR ASSAY
Human fibrinogen receptor (αIIbβ3) was purified from outdated platelets. (Pytela, R., Pierschbacher, M.D., Argraves, S., Suzuki, S., and Rouslahti, E. "Arginine-Glycine-Aspartic acid adhesion receptors", Methods in Enzymology 144(1987):475-489.) Human vitronectin was purified from fresh frozen plasma as described in Yatohgo, T., Izumi, M., Kashiwagi, H., and Hayashi, M., "Novel purification of vitronectin from human plasma by heparin affinity chromatography," Cell Structure and Function 13(1988):281-292. Biotinylated human vitronectin was prepared by coupling NHS-biotin from Pierce Chemical Company (Rockford, IL) to purified vitronectin as previously described. (Charo, I.F., Nannizzi, L., Phillips, D.R., Hsu, M.A., Scarborough, R.M., "Inhibition of fibrinogen binding to GP IIb/IIIa by a GP IIIa peptide", J. Biol. Chem. 266(3)(1991): 1415-1421.) Assay buffer, OPD substrate tablets, and RIA grade BSA were obtained from Sigma (St. Louis, MO). Anti-biotin antibody was obtained from Calbiochem (La Jolla, CA). Linbro microtiter plates were obtained from Flow Labs (McLean, VA). ADP reagent was obtained from Sigma (St. Louis, MO).
This assay is essentially the same reported in Niiya, K., Hodson, E., Bader, R., Byers-Ward, V. Koziol, J.A., Plow, E.F. and Ruggeri, Z.M., "Increased surface expression of the membrane glycoprotein IIb/IIIa complex induced by platelet activation: Relationships to the binding of fibrinogen and platelet aggregation", Blood 70(1987):475-483. The purified human fibrinogen receptor (αIIbβ3) was diluted from stock solutions to 1.0 µg/mL in Tris-buffered saline containing 1.0 mM Ca^++, Mg^++, and Mn^++, pH 7.4 (TBS^+++). The diluted receptor was immediately transferred to Linbro microtiter plates at 100 µL/well (100 ng receptor/well). The plates were sealed and incubated overnight at 4°C to allow the receptor to bind to the wells. All remaining steps were at room temperature. The assay plates were emptied and 200 µL of 1% RIA grade BSA in TBS^+++ (TBS^+++/BSA) were added to block exposed plastic surfaces. Following a 2 hour incubation, the assay plates were washed with TBS^+++ using a 96 well plate washer. Logarithmic serial dilution of the test compound and controls were made starting at a stock concentration of 2 mM and using 2 nM biotinylated vitronectin in TBS^+++/BSA as the diluent. This premixing of labeled ligand with test (or control) ligand, and subsequent transfer of 50 µL aliquots to the assay plate was carried out with a CETUS Propette robot; the final concentration of the labeled ligand was 1 nM and the highest concentration of test compound was 1.0 x 10^-4 M. The competition occurred for two hours after which all wells were washed with a plate washer as before. Affinity purified horseradish peroxidase labeled goat anti-biotin antibody was diluted 1:3000 in TBS^+++/BSA and 125 µL were added to each well. After 30 minutes, the plates were washed and incubated with […] substrate in 100 mM/L citrate buffer, pH 5.0. The plate was read with a microtiter plate reader at a wavelength of 450 nm and when the maximum-binding control wells reached an absorbance of about 1.0, the final A450 were recorded for analysis. The data were analyzed using a macro written for use with the EXCEL™ spreadsheet program. The mean, standard deviation, and %CV were determined for duplicate concentrations. The mean A450 values were normalized to the mean of four maximum-binding controls (no competitor added)(B-MAX). The normalized values were subjected to a four parameter curve fit algorithm, [Robard et al., Int. […]

[2] = target: T2, Human vitronectin receptor (αvβ3) (Homo sapiens, UniProt P05106+P06756); test: Vitronectin adhesion assay (solid phase receptor assay, competition with biotinylated vitronectin); assay type: binding
T2 construct: Human vitronectin receptor (αvβ3) was purified from human placenta; from tissue; host or cells: human placenta
Protocol: VITRONECTIN ADHESION ASSAY
Human vitronectin receptor (αvβ3) was purified from human placenta as previously described [Pytela et al., Methods in Enzymology, 144:475-489 (1987)]. Human vitronectin was purified from fresh frozen plasma as previously described [Yatohgo et al., Cell Structure and Function, 13:281-292 (1988)]. Biotinylated human vitronectin was prepared by coupling NHS-biotin from Pierce Chemical Company (Rockford, IL) to purified vitronectin as previously described [Charo et al., J. Biol. Chem., 266(3):1415-1421 (1991)]. Assay buffer, OPD substrate tablets, and RIA grade BSA were obtained from Sigma (St. Louis, MO). Anti-biotin antibody was obtained from Calbiochem (La Jolla, CA). Linbro microtiter plates were obtained from Flow Labs (McLean, VA). ADP reagent was obtained from Sigma (St. Louis, MO).
This assay was essentially the same as previously reported [Niiya et al., Blood, 70:475-483 (1987)]. The purified human vitronectin receptor (αvβ3) was diluted from stock solutions to 1.0 µg/mL in Tris-buffered saline containing 1.0 mM Ca^++, Mg^++, and Mn^++, pH 7.4 (TBS^+++). The diluted receptor was immediately transferred to Linbro microtiter plates at 100 µL/well (100 ng receptor/well). The plates were sealed and incubated overnight at 4°C to allow the receptor to bind to the wells. All remaining steps were at room temperature. The assay plates were emptied and 200 µL of 1% RIA grade BSA in TBS^+++ (TBS^+++/BSA) were added to block exposed plastic surfaces. Following a 2 hour incubation, the assay plates were washed with TBS^+++ using a 96 well plate washer. Logarithmic serial dilution of the test compound and controls were made starting at a stock concentration of 2 mM and using 2 nM biotinylated vitronectin in TBS^+++/BSA as the diluent. This premixing of labeled ligand with test (or control) ligand, and subsequent transfer of 50 µL aliquots to the assay plate was carried out with a CETUS Propette robot; the final concentration of the labeled ligand was 1 nM and the highest concentration of test compound was 1.0 x 10^-4 M. The competition occurred for two hours after which all wells were washed with a plate washer as before. Affinity purified horseradish peroxidase labeled goat anti-biotin antibody was diluted 1:3000 in TBS^+++/BSA and 125 µL were added to each well. After 30 minutes, the plates were washed and incubated with OPD/H2O2 substrate in 100 mM/L Citrate buffer, pH 5.0. The plate was read with a microtiter plate reader at a wavelength of 450 nm and when the maximum-binding control wells reached an absorbance of about 1.0, the final A450 were recorded for analysis. The data were analyzed using a macro written for use with the EXCEL™ spreadsheet program. The mean, standard deviation, and %CV were determined for duplicate concentrations. The mean A450 values were normalized to the mean of four maximum-binding controls (no competitor added)(B-MAX). The normalized values were subjected to a four parameter curve fit algorithm [Rodbard et al., Int.

[3] = purified receptor from human placenta; 1 nM biotinylated vitronectin; highest concentration tested 1.0 x 10^-4 M; read-out: AvB3 IC50

SMILES | IC50 [1] [nM] | IC50 [2, 3] [nM] | IC50 ([2]; read-out: AvB3 IC50; purified receptor from human placenta; 1 nM biotinylated vitronectin; highest concentration tested 1.0 x 10^-4 M) [nM]
CCCCS(=O)(=O)NC(Cc1ccc(NC(=O)c2cccc(NC(=N)N)c2)cc1)C(=O)O (stereo not drawn) [Example 52, trifluoroacetate salt] | 1.88 | 0.33 | –
CC(C)(C)OC(=O)NC(Cc1ccc(NC(=O)c2cccc(N=C(N)N)c2)cc1)C(=O)O (stereo not drawn) [Example 55, 4-[[[3-[(aminoiminomethyl)amino]phenyl]carbonyl]amino]-N-[(1,1-dimethylethoxy)carbonyl]-phenylalanine, monohydrate trifluoroacetate salt] | 14.3 | 0.51 | –
CC(C)(C)OC(=O)N[C@@H](Cc1ccc(NC(=O)c2cccc(NC(=N)N)c2)cc1)C(=O)O [Example 56, trifluoroacetate salt] | 6.35 | 0.43 | –
CC(C)(C)OC(=O)N[C@H](Cc1ccc(NC(=O)c2cccc(NC(=N)N)c2)cc1)C(=O)O [Example 57, 4-[[[3-[(aminoiminomethyl)amino]phenyl]carbonyl]amino]-N-[(1,1-dimethylethoxy)carbonyl]-D-phenylalanine, monohydrate trifluoroacetate salt] | 318 | 14.5 | –
CC(C)(C)OC(=O)CCc1ccc(CCNC(=O)c2cccc(NC(=N)N)c2)cc1 [Example 58, monohydrate trifluoroacetate salt] | 57200 | – | 48400
N=C(N)Nc1cccc(C(=O)NCCc2ccc(CCC(=O)O)cc2)c1 [Example 59, 4-[2-[[[3-[(aminoiminomethyl)amino]phenyl]carbonyl]amino]ethyl]benzenepropanoic acid, trifluoroacetate salt] | 478 | 4480 | –
CCOC(=O)CCc1ccc(N(C)C(=O)c2cccc(NC(=N)N)c2)cc1 [Example 60, ethyl 4-[[[3-[(aminoiminomethyl)amino]phenyl]carbonyl]methylamino]benzenepropanoate, trifluoroacetate salt] | 3810 | 3370 | –
CN(C(=O)c1cccc(NC(=N)N)c1)c1ccc(CCC(=O)O)cc1 [Example 61, 4-[[[3-[(aminoiminomethyl)amino]phenyl]carbonyl]methylamino]benzenepropanoic acid, monohydrate trifluoroacetate salt] | 666 | 470 | –
N=C(N)Nc1cccc(S(=O)(=O)Nc2ccc(CCC(=O)O)cc2)c1 [Example 62, 4-[[[3-[(aminoiminomethyl)amino]phenyl]sulfonyl]amino]benzenepropanoic acid, trifluoroacetate salt] | 14800 | 28100 | –
NC(N)=Nc1cccc(C(=O)Nc2ccc(CCC(=O)O)cc2)c1 [Example 64, 4-[[[3-[(aminoiminomethyl)amino]phenyl]carbonyl]amino]benzenepropanoic acid, hydrochloride] | 93.1 | 21.2 | –
N=C(N)Nc1cccc(C(=O)Nc2ccc(CC(N)C(=O)O)cc2)c1 (stereo not drawn) [Example 65, 4-[[[3-[(aminoiminomethyl)amino]phenyl]carbonyl]amino]phenylalanine, trifluoroacetate salt] | 21900 | 4760 | –
CC(=O)NC(Cc1ccc(NC(=O)Nc2cccc(NC(=N)N)c2)cc1)C(=O)O (stereo not drawn) [Example 68, N-acetyl-4-[[[[3-[(aminoiminomethyl)amino]phenyl]amino]carbonyl]amino]phenylalanine, trifluoroacetate salt] | 103 | 782 | –
CCOC(=O)C(CC(=O)O)c1ccc(NC(=O)c2cccc(NC(=N)N)c2)cc1 (stereo not drawn) [Example 71, 1-ethyl hydrogen[4-[[[3-[(aminoiminomethyl)amino]phenyl]carbonyl]amino]-phenyl]butanedioate, trifluoroacetate salt] | 8.3 | 38.7 | –
CC(C)OC(=O)NC(Cc1ccc(NC(=O)c2cccc(NC3=NC(=O)CN3)c2)cc1)C(=O)O (stereo not drawn) [Example 77, 4-[[[3-[(4,5-dihydro-4-oxo-lH-imidazol-2-yl)amino]phenyl]carbonyl]amino]-N-[(1-methylethoxy)-carbonyl]phenylalanine] | 1260 | 1.6 | –
N#CN=C(NCc1ccccc1)Nc1cccc(C(=O)Nc2ccc(CCC(=O)O)cc2)c1 [Example 79, 4-[[[3-[[(cyanoimino)[(phenylmethyl)-amino]methyl]amino]phenyl]carbonyl]amino]-benzenepropanoic acid] | 10200 | 2290 | –
CCOC(=O)CS(=O)(=O)c1ccc(NC(=O)c2cccc(NC(=N)N)c2)cc1 [Example 80, ethyl [[4-[[[3-[(aminoiminomethyl)amino]phenyl]carbonyl]amino]phenyl]sulfonyl]acetate, monohydrate trifluoroacetate salt] | 19800 | 44200 | –
N=C(N)Nc1cccc(C(=O)Nc2ccc(SCC(=O)O)cc2)c1 [Example 82, [[4-[[[3-[(aminoiminomethyl)amino]phenyl]carbonyl]amino]phenyl]thio]acetic acid, trifluoroacetate] | 332 | 264 | –
N=C(N)Nc1cccc(NC(=O)Cc2ccc(OCC(=O)O)cc2)c1 [Example 84, [4-[2-[[3-[(aminoiminomethyl)amino]phenyl]amino]-2-oxoethyl]phenoxy]acetic acid, trifluoroacetate salt] | 486 | 16300 | –
